Results taken from US12234245B2, “Sulfonimidamide compounds as inhibitors of interleukin-1 activity” (Genentech, Inc., priority 2018, dated 2025).

What was measured:
Type in all cases: cell-based
NLRP3 inflammasome [1] = target: T1, NLRP3 inflammasome (Homo sapiens, UniProt Q96P20); assay: NLRP3 inflammasome activation assay in PBMCs, IL-1β release (ELISA / HTRF); set-up: were freshly isolated from human peripheral blood from healthy donors; StemCells Technologies; host or cells: primary human PBMCs, LPS-primed, nigericin-stimulated; details: LPS primed
Protocol: Some of the following assays were used to determine the inhibitory activity of the compounds on the NLRP3 inflammasome using a common inflammasome activation stimuli—nigericin.
(§1) Human peripheral blood mononuclear cells (PBMCs), consisting of lymphocytes (T, B and NK cells), monocytes and dendritic cells, were freshly isolated from human peripheral blood from healthy donors. Cells were obtained through an IRB approved donor program by iXCells Biotechnologies where all the donors were tested for bacterial and viral infections. Cells were purified from peripheral blood using ficoll gradient centrifugation.
(§2) Fresh or cryopreserved PMBCs were seeded in V-bottom 96-well plate at 0.5-1×10^5 cells per well and incubated overnight at 37° C. with 5% CO2 in RPMI 1640 medium with GlutaMAX supplement, 4.5 g/L D-glucose, 10% Fetal Bovine Serum (FBS), […] Sodium Pyruvate, 1% Penicillin/Streptomycin, 10 mM HEPES and 0.05 mM of β-mercaptoethanol. Freshly isolated or cryopreserved KCs cells were seeded in flat-bottom 96-well plates at 0.6-1.5×10^5 cells/well and incubated overnight at 37° C. 5% CO2 in RPMI 1640 Medium with GlutaMAX supplement, FBS, 1% Penicillin/Streptomycin and 10 mM HEPES. The following day, the cells were primed with 100 ng/mL of lipopolysaccharides (LPS; Sigma Aldrich) in FBS-free RPMI 1640 for 3 h. After the priming step, the media was removed and PBMCs were pre-incubated with serial concentrations of test compounds (0.00017-10 uM) or vehicle (DMSO) for 30 min in FBS-free media prior to addition of the NLRP3 activator. Cells were then stimulated with 10 uM Nigericin (Sigma Aldrich; InvivoGen) for 1.5 h. Plates were centrifuged at 1,500 rpm for 3 minutes to pellet cells and supernatant was transferred into new plates for subsequent experiments.
For ELISA assays cells were seeded into 96-well plates. Post study, supernatants were removed and the levels of mature IL-1β, IL18 and TNFα (Quantikine ELISA, R&D systems) were measured in cell conditioned media by ELISA according to manufacturer's instructions.
Human frozen PBMCs were purchased from StemCells Technologies. Cells were rapidly thawed in 37° C. water bath and resuspended in fresh assay media consisting of RPMI 1640 Medium containing 1% sodium pyruvate, 10 mM HEPES, 2.5 g/L glucose and 55 μM 2-Mercaptoethanol. Cell density was adjusted to 8.1×10^5 cells/mL. Cells were primed by adding lipopolysaccharide (Invivogen Ultrapure lipopolysaccharide from E. coli, tlrl-3pelps) at a final concentration of 100 ng/mL in cell suspension. 37 μL of cell suspension with LPS was seeded per well of a 384 well plate and incubated for 3 hours at 37° C. and 5% CO2. After priming, PBMCs were preincubated with serially diluted test compounds with starting concentration of 40 μM followed by 2-fold dilution for a 20-point curve or vehicle (DMSO) for 30 min in assay media at 37° C. and 5% CO2. Cells were then stimulated with 10 μM nigericin (Invivogen, tlrl-nig-5) for 90 min at 37° C. and 5% CO2 to activate NLRP3 dependent inflammasome pathway and IL-1β release in cell culture supernatant. Cells were centrifuged at 1200 RPM for 1 min and 40 μL of supernatant was transferred into fresh plates and stored at −80° C. until IL-1β analysis.
16 μL of supernatant was added to white 384 well HTRF plates, followed by addition of 4 μL of HTRF cocktail in each well. Plates were quickly centrifuged, sealed and incubated overnight at room temperature. Next day, HTRF signal was read on a Pherastar and ratio of 665/620 was calculated based on manufacturer's protocol to obtain concentration of IL-1β in cell culture supernatant.

PBMCs = assay: CTG (CellTiter-Glo) viability assay in PBMCs; details: Homo sapiens, PBMC, LPS and nigericin stimulated
Protocol: as §1, §2
Viability of compound treated cells was measured using CellTiter-Glo® assay (Promega, Madison, Wis.) that measures the ATP content of cells which is proportional to the number of live cells within a well. This is a counter-screen to establish that the reduction of IL-1β levels in LPS and nigericin stimulated and compound treated cells is not due to cytotoxicity, but rather through the inhibition of the inflammasome pathway. Compounds inhibiting NRLP3 inflammasome activation ultimately increase the viability of LPS and nigericin stimulated cells by blocking NLRP3 mediated pyroptosis that would otherwise lead to cell lysis.

NLRP3 inflammasome [2] = target: T1, NLRP3 inflammasome; assay: THP-1 ASC-GFP speck assay; set-up: host or cells: THP-1 ASC-GFP cells, PMA-differentiated, LPS-primed, nigericin-stimulated; details: THP-1 ASC-GFP cells, PMA differentiated, LPS primed, 10 μM nigericin; read-out: THP1 ASC Speck IC50
Method in brief: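 PMA-differentiated (500 ng/ml, overnight) THP-1 ASC-GFP cells primed with 1 μg/mL LPS for 3 h, preincubated 30 min with compound (top 40 μM, 2-fold, 20 points), then stimulated with 10 μM nigericin for 90 min at 37 °C. After fixation and Hoechst staining, imaging gave the percentage of cells bearing a GFP ASC speck.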

[3] = 10 uM nigericin, read-out: PBMC IL-1 β IC50
[4] = 10 μM nigericin, read-out: PBMC IL-1β IC50

T1 sequence (Q96P20 whole entry): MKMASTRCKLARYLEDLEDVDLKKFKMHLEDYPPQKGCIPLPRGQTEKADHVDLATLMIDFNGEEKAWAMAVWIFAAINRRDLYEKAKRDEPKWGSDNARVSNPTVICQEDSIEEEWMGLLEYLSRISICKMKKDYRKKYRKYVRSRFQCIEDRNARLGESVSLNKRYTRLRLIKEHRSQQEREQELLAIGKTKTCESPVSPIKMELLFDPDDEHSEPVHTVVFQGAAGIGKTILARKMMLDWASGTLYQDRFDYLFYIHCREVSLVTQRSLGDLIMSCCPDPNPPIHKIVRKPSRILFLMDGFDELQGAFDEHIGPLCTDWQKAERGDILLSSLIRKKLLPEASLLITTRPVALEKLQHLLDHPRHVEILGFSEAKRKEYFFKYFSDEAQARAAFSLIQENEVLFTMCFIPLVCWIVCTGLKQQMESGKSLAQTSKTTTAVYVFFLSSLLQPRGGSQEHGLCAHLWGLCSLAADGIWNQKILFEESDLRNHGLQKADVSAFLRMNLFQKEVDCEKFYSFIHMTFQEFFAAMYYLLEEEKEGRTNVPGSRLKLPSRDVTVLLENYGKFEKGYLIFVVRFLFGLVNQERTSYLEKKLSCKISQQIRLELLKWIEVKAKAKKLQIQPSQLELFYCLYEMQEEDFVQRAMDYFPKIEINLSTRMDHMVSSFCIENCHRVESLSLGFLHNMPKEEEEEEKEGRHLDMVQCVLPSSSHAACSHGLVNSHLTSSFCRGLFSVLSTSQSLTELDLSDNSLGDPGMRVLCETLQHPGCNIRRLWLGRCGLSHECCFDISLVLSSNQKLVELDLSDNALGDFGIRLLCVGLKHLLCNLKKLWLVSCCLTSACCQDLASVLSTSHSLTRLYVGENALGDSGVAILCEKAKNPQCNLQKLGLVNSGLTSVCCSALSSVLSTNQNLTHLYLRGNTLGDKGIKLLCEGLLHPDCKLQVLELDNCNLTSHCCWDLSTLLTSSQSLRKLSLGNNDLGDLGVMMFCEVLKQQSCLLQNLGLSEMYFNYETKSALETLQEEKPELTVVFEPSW

IC50 (NLRP3 inflammasome [1]; [3]) [nM] | IC50 (NLRP3 inflammasome [1]; [4]) [nM] | IC50 (NLRP3 inflammasome [2]) [nM] | Compound | IC50 (PBMCs) [nM]
< 100 | – | – | NS(=O)(=NC(=O)Nc1c2c(c(F)c3c1CCC3)CCC2)c1cnn2c1OCCC2 (stereo not drawn) | < 100
100 to 1000 | – | – | Cn1cc(S(N)(=O)=NC(=O)Nc2c3c(cc4c2CCC4)CCC3)cn1 (stereo not drawn) | 100 to 1000
< 100 | – | – | CC1(C)COc2c(S(N)(=O)=NC(=O)Nc3c4c(cc5c3CCC5)CCC4)cnn2C1 (stereo not drawn) | < 100
> 10000 | – | – | CN=S(=O)(NC(=O)Nc1c2c(cc3c1CCC3)CCC2)c1cnn2c1OCCC2 (stereo not drawn) | > 10000
100 to 1000 | – | – | N=S(=O)(NC(=O)Nc1c2c(cc3c1CCC3)CCC2)c1cnn(CC2CC2)c1 (stereo not drawn) | 100 to 1000
– | 24 | – | CO[C@@H]1COc2c(S(N)(=O)=NC(=O)Nc3c4c(cc5c3CCC5)CCC4)cnn2C1 (mixture of isomers) [Example 2, (6S)—N′-((1,2,3,5,6,7-hexahydro-s-indacen-4-yl)carbamoyl)-6-methoxy-6,7-dihydro-5H-pyrazolo[5,1-b][1,3]oxazine-3-sulfonimidamide] | 100
– | 410 | – | CC(C)c1cc(F)cc(C(C)C)c1NC(=O)N=S(N)(=O)c1cnn2c1OCCC2 (racemic) [Example 3, N′-((4-fluoro-2,6-diisopropylphenyl)carbamoyl)-6,7-dihydro-5H-pyrazolo[5,1-b][1,3]oxazine-3-sulfonimidamide] | 176
– | 50 | – | NS(=O)(=NC(=O)Nc1c2c(c(F)c3c1CCC3)CCC2)c1cnn2c1OCCC2 (racemic) [Example 4, N′-((8-fluoro-1,2,3,5,6,7-hexahydro-s-indacen-4-yl)carbamoyl)-6,7-dihydro-5H-pyrazolo[5,1-b][1,3]oxazine-3-sulfonimidamide] | 35
– | 1020 | – | Cn1cc(S(N)(=O)=NC(=O)Nc2c3c(cc4c2CCC4)CCC3)cn1 (racemic) [Example 5, N′-((1,2,3,5,6,7-hexahydro-s-indacen-4-yl)carbamoyl)-1-methyl-1H-pyrazole-4-sulfonimidamide] | 648
– | 14 | – | CC1(C)COc2c(S(N)(=O)=NC(=O)Nc3c4c(cc5c3CCC5)CCC4)cnn2C1 (racemic) [Example 6, N′-((1,2,3,5,6,7-hexahydro-s-indacen-4-yl)carbamoyl)-6,6-dimethyl-6,7-dihydro-5H-pyrazolo[5,1-b][1,3]oxazine-3-sulfonimidamide] | 3
– | 5 | 18 | COC1CN(C2COc3c(S(N)(=O)=NC(=O)Nc4c5c(c(F)c6c4CCC6)CCC5)cnn3C2)C1 (single isomer, unassigned) [Example 42] | –
– | 430 | 1900 | COC1CN(C2COc3c(S(N)(=O)=NC(=O)Nc4c5c(c(F)c6c4CCC6)CCC5)cnn3C2)C1 (single isomer, unassigned) [Example 43] | –
– | 86 | 450 | CN(C)[C@@H]1COc2c([S@](N)(=O)=NC(=O)Nc3c4c(c(F)c5c3CCC5)CCC4)cnn2C1 (single isomer, unassigned) [Example 44] | –
– | 0.7 | 11 | CN(C)[C@@H]1COc2c([S@@](N)(=O)=NC(=O)Nc3c4c(c(F)c5c3CCC5)CCC4)cnn2C1 (single isomer, unassigned) [Example 45] | –
– | 7 | 81 | NS(=O)(=NC(=O)Nc1c2c(c(F)c3c1CCC3)CCC2)c1cnn2c1OCC(NCCF)C2 (single isomer, unassigned) [Example 46] | –
– | 330 | 1700 | NS(=O)(=NC(=O)Nc1c2c(c(F)c3c1CCC3)CCC2)c1cnn2c1OC[C@@H](NCCF)C2 (single isomer, unassigned) [Example 47] | –
– | 490 | 400 | COc1cc(C(C)C)c(NC(=O)N=S(N)(=O)c2cnn3c2OC[C@@H](N2CC(OC)C2)C3)c(C(C)C)n1 (single isomer, unassigned) [Example 49] | –
– | 200 | 430 | CNC1COc2c(S(N)(=O)=NC(=O)Nc3c(C(C)C)cc(OC)nc3C(C)C)cnn2C1 (single isomer, unassigned) [Example 50] | –
– | > 10000 | 17000 | CNC1COc2c(S(N)(=O)=NC(=O)Nc3c(C(C)C)cc(OC)nc3C(C)C)cnn2C1 (single isomer, unassigned) [Example 51] | –
– | 15100 | > 20000 | COc1cc(C(C)C)c(NC(=O)N=S(N)(=O)c2cnn3c2OCC(OC)C3)c(C(C)C)n1 (single isomer, unassigned) [Example 52] | –
– | 470 | 1200 | COc1cc(C(C)C)c(NC(=O)N=S(N)(=O)c2cnn3c2OCC(OC)C3)c(C(C)C)n1 (single isomer, unassigned) [Example 53] | –
– | 330 | 360 | COCCNC1COc2c(S(N)(=O)=NC(=O)Nc3c4c(cc5c3CCC5)CCC4)cnn2C1 (single isomer, unassigned) [Example 54] | –
– | > 10000 | 7200 | COCCNC1COc2c(S(N)(=O)=NC(=O)Nc3c4c(cc5c3CCC5)CCC4)cnn2C1 (single isomer, unassigned) [Example 55] | –
– | > 10000 | > 20000 | CNCCOC1COc2c(S(N)(=O)=NC(=O)Nc3c4c(cc5c3CCC5)CCC4)cnn2C1 (single isomer, unassigned) [Example 56] | –
– | > 10000 | 5500 | NC1COc2c(S(N)(=O)=NC(=O)Nc3c4c(cc5c3CCC5)CCC4)cnn2C1 (single isomer, unassigned) [Example 58] | –
– | > 20000 | > 20000 | CC1CCOc2c(S(N)(=O)=NC(=O)Nc3c4c(cc5c3CCC5)CCC4)cnn2C1 (single isomer, unassigned) [Example 64] | –
– | > 20000 | > 20000 | CC1CCOc2c(S(N)(=O)=NC(=O)Nc3c4c(cc5c3CCC5)CCC4)cnn2C1 (single isomer, unassigned) [Example 66] | –
– | 220 | 1400 | CC1CCOc2c(S(N)(=O)=NC(=O)Nc3c4c(cc5c3CCC5)CCC4)cnn2C1 (single isomer, unassigned) [Example 67] | –
– | 380 | 330 | N#CNS(=O)(=NC(=O)Nc1c2c(cc3c1CCC3)CCC2)c1cnn2c1OCCC2 (single isomer, unassigned) [Example 68] | –
– | 95 | 260 | N[C@@H]1COc2c([S@@](N)(=O)=NC(=O)Nc3c4c(cc5c3CCC5)CCC4)cnn2C1 [Example 59, (S,6S)-6-amino-N′-((1,2,3,5,6,7-hexahydro-s-indacen-4-yl)carbamoyl)-6,7-dihydro-5H-pyrazolo[5,1-b][1,3]oxazine-3-sulfonimidamide] | –
